Data on three molecules can be found in ChEMBL document CHEMBL4725309, “Potent, non-covalent reversible BTK inhibitors with 8-amino-imidazo[1,5-a]pyrazine core featuring 3-position bicyclic ring substitutes” (Bioorg Med Chem Lett, 2020).

Data set [1] addresses Tyrosine-protein kinase BTK (Homo sapiens, UniProt Q06187). Put plainly: Inhibition of recombinant full length BTK (unknown origin) expressed in baculovirus infected Sf9 cells using Biotin-EQEDEPEGDYFEWLE-NH2 peptide as substrate incubated for 60 mins followed by further incubation with substrate and ATP for 120 mins by TR-FRET assay. Background: In TR-FRET formats the signal depends on donor and acceptor labels being close together.

Data set [2] deals with Tyrosine-protein kinase Fgr (Homo sapiens, UniProt P09769). Put plainly: Inhibition of FGR (unknown origin).
The target of data set [3] is Tyrosine-protein kinase FRK (Homo sapiens, UniProt P42685). The experiment in a line: Inhibition of FRK (unknown origin).
Data set [4] deals with Tyrosine-protein kinase Fyn (Homo sapiens, UniProt P06241). Put plainly: Inhibition of FYN (unknown origin).
Data set [5] has as its target Proto-oncogene tyrosine-protein kinase Src (Homo sapiens, UniProt P12931). The experiment in a line: Inhibition of SRC (unknown origin).
Data set [6] has as its target T1, Tyrosine-protein kinase Tec (Homo sapiens, UniProt P42680).
T1 sequence (P42680 whole entry): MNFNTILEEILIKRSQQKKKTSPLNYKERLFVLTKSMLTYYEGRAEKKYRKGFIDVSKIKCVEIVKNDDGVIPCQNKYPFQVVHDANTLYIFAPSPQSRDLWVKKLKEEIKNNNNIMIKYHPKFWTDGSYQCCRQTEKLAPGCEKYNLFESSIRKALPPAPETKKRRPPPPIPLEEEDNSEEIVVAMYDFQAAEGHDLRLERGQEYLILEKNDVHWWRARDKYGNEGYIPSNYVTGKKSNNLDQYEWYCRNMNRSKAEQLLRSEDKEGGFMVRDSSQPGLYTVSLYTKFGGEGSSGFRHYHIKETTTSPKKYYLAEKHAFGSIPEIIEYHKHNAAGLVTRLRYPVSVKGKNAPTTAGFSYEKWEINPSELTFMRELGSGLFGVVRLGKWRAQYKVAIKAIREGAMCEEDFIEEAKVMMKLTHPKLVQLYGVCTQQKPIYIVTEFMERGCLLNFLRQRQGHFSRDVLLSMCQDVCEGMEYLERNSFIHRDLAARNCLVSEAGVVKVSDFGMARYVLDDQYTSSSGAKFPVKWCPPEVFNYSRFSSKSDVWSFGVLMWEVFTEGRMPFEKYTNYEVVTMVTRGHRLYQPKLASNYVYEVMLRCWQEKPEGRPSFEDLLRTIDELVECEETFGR
Put plainly: Inhibition of TEC (unknown origin).

For data set [7], the target named is Tyrosine-protein kinase Yes (Homo sapiens, UniProt P07947). The experiment in a line: Inhibition of YES1 (unknown origin).
The species entered for data set [8] is Homo sapiens. Put plainly: Selectivity index, ratio of IC50 for ERBB4 (unknown origin) to IC50 for recombinant full length BTK (unknown origin) expressed in baculovirus infected Sf9 cells.
For data set [9], the species on record is Homo sapiens. Put plainly: Selectivity index, ratio of IC50 for FGR (unknown origin) to IC50 for recombinant full length BTK (unknown origin) expressed in baculovirus infected Sf9 cells.
The species named for data set [10] is Homo sapiens. Put plainly: Selectivity index, ratio of IC50 for FYN (unknown origin) to IC50 for recombinant full length BTK (unknown origin) expressed in baculovirus infected Sf9 cells.
The species named for data set [11] is Homo sapiens. Put plainly: Selectivity index, ratio of IC50 for TXK (unknown origin) to IC50 for recombinant full length BTK (unknown origin) expressed in baculovirus infected Sf9 cells.
Data set [12] in a line: Clearance in Beagle dog at 1 mg/kg, iv. The format is ADME, organism-based, Canis lupus familiaris. Particulars: in vivo.
Data set [13] in a line: Volume of distribution at steady state in Beagle dog at 1 mg/kg, iv. The data set is classed as ADME, organism-based, Canis lupus familiaris. Particulars: in vivo, read-out: Vdss.
The nature of data set [14]: AUC in Beagle dog at 1 mg/kg, iv. The note with it: in vivo. Set-up: dose 1 mg/kg. The data set is classed as ADME, organism-based, Canis lupus familiaris.
The nature of data set [15]: Half life in Beagle dog at 1 mg/kg, iv. The data set is classed as ADME, organism-based, Canis lupus familiaris. Particulars: in vivo.
Data set [16] can be described thus: Cmax in Beagle dog at 2 mg/kg, po. The format is ADME, organism-based, Canis lupus familiaris. Set-up: route oral, dose 2 mg/kg. Particulars: in vivo.
Data set [17] is described as follows: Tmax in Beagle dog at 2 mg/kg, po. Particulars: in vivo. The data set is classed as ADME, organism-based, Canis lupus familiaris.
Data set [18] can be described thus: Oral bioavailability in Beagle dog at 2 mg/kg. The format is ADME, organism-based, Canis lupus familiaris. The note with it: in vivo.
A further data set deals with Rattus norvegicus. Put plainly: Antiarthritic activity in Lewis rat model of collagen-induced arthritis assessed as decrease in paw thickness at 1 to 30 mg/kg, po qd and measured for 30 days. The format is functional, organism-based. Particulars: dose mg/kg 1-30, time 30.0 day.

Tyrosine-protein kinase Fyn, sequence (P06241 whole entry): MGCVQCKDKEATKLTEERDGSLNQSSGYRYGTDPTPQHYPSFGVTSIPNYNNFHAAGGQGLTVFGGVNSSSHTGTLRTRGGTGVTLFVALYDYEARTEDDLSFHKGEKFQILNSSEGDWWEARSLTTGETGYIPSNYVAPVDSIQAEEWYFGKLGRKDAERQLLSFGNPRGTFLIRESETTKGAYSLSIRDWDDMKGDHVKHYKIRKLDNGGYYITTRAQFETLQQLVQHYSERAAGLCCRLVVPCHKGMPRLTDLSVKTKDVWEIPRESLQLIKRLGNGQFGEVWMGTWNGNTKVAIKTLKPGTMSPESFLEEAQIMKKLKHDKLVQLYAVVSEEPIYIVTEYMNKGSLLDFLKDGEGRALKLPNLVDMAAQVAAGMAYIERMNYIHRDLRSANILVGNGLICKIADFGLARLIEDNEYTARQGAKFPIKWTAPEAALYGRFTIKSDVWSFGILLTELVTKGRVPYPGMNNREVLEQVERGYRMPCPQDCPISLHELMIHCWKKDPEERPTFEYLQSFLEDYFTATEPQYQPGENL
Tyrosine-protein kinase Yes, sequence (P07947 whole entry): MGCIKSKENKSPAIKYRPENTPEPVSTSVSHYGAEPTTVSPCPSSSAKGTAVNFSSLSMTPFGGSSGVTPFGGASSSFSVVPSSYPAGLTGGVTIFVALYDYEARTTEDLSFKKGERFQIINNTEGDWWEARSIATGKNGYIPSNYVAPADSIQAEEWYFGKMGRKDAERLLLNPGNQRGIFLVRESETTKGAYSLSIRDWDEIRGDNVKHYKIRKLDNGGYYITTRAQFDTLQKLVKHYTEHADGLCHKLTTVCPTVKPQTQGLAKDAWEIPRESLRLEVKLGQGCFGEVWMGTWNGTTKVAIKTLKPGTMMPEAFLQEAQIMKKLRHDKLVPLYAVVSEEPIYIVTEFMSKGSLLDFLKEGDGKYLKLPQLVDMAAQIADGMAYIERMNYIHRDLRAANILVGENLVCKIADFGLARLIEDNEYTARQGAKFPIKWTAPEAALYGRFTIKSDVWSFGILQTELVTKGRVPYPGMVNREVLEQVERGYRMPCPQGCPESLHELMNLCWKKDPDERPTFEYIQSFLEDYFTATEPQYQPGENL
Proto-oncogene tyrosine-protein kinase Src, sequence (P12931 2-536 limits assumed): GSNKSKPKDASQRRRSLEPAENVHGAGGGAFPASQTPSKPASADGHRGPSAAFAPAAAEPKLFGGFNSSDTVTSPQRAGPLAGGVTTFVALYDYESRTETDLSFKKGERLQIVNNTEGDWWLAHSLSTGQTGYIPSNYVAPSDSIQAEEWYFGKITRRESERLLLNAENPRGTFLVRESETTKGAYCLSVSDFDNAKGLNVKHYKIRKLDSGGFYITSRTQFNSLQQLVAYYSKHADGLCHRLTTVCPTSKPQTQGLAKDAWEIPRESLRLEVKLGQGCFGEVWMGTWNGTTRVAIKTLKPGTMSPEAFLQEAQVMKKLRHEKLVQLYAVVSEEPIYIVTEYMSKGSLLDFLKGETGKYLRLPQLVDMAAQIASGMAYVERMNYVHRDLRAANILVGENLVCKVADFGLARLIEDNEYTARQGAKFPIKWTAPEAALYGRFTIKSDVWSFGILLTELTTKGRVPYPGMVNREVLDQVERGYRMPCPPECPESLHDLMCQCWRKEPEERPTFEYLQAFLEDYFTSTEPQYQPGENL
Tyrosine-protein kinase FRK, sequence (P42685 whole entry): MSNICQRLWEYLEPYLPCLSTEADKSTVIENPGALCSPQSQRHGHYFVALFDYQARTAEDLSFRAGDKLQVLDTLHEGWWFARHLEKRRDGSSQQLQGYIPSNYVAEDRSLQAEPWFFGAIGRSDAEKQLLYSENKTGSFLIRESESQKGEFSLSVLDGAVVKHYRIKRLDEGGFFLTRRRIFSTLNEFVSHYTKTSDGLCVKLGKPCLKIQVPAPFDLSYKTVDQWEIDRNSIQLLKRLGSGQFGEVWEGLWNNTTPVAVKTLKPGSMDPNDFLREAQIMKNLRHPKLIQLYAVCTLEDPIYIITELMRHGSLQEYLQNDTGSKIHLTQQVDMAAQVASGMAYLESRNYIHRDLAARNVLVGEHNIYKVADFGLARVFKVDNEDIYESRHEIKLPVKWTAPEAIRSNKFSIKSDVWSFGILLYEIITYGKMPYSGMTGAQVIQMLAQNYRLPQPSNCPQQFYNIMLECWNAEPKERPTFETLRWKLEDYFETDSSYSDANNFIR
Tyrosine-protein kinase BTK, sequence (Q06187 whole entry): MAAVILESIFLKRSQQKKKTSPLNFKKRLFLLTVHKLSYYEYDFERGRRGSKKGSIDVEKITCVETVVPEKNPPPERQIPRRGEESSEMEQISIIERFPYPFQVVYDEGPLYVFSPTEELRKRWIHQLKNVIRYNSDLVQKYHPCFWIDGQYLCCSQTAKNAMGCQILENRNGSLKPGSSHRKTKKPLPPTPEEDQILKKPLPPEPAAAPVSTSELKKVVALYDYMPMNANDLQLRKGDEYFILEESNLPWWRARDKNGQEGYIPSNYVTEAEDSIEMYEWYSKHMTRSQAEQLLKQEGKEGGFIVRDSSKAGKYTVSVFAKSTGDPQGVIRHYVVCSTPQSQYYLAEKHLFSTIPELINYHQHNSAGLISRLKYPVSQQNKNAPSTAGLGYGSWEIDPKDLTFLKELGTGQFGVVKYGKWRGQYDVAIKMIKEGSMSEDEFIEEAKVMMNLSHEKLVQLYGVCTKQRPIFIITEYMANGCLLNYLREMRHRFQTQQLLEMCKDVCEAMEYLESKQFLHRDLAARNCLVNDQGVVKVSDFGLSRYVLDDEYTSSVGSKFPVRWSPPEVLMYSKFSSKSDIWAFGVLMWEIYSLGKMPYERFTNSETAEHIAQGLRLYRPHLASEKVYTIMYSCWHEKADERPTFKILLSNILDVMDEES
Tyrosine-protein kinase Fgr, sequence (P09769 whole entry): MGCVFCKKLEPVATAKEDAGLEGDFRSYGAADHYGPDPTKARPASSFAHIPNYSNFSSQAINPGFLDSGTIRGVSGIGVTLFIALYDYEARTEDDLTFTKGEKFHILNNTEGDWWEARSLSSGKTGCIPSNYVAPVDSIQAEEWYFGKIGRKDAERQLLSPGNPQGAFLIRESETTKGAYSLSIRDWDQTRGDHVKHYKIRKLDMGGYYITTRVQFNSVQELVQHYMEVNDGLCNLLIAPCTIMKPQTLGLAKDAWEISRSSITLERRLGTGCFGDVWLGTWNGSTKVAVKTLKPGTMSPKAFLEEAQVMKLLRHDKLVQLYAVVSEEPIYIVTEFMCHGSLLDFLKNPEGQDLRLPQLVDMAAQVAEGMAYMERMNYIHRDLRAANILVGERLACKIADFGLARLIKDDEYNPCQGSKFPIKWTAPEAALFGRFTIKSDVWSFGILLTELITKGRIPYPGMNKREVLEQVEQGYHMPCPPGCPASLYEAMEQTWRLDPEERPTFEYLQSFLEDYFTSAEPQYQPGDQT

As for `Nc1nccn2c([C@@H]3CC[C@H]4COC(=O)N4C3)nc(-c3ccc(C(=O)Nc4cc(C(F)(F)F)ccn4)cc3)c12`, the IC50 turned out to be 0.083 nM in data set [1]; 26 nM in [2]; 46 nM in data set [3]; 18 nM in [4]; 92 nM in [5]; 92 nM in data set [6]. In [7], this molecule showed an IC50 of 35 nM. Besides, the Ratio IC50 came to 410 in the data set filed under Homo sapiens [8], 313 in the data set listed under Homo sapiens [9], 219 in the data set listed under Homo sapiens [10] and 554 in the data set filed under Homo sapiens [11].

For `Nc1nccn2c([C@@H]3CC[C@H]4CCC(=O)N4C3)nc(-c3ccc(C(=O)Nc4cc(C(F)(F)F)ccn4)cc3)c12`, the IC50 in data set [3] came to 34 nM; in data set [4], 87 nM; in data set [5], 33 nM; in data set [6] it was 63 nM; in data set [7] it was 12 nM. Also, the Ratio IC50 is 240 in the data set filed under Homo sapiens [8], 870 in the data set listed under Homo sapiens [10] and 330 in the data set listed under Homo sapiens [11]. For the same molecule, the clearance in [12] stood at 11 mL/min/kg. Also, the Vd in data set [13] was found to be 1.5 L/kg. Besides, the area under the curve (AUC) in [14] came out at 2.8 µM·h. This molecule had a half-life in data set [15] of 216 min. This molecule yielded a Cmax in data set [16] of 1700 nM. In [17], the Tmax was found to be 1 h. The bioavailability in data set [18] is 100%. Further, the Activity entry with Rattus norvegicus was “Dose-dependent effect”.

Consider `CC1(C)OC(=O)N2C[C@H](c3nc(-c4ccc(C(=O)Nc5cc(C(F)(F)F)ccn5)cc4)c4c(N)nccn34)CC[C@H]21`, for which the IC50 in data set [1] was 0.12 nM; in data set [2], 34 nM; in [3], 36 nM; in data set [4] it was 212 nM; in data set [5] it was 69 nM; in data set [6], 27 nM. This molecule also gave a half-inhibitory concentration (IC50) in data set [7] of 30 nM. Besides, the Ratio IC50 in the data set filed under Homo sapiens [8] stood at 190; in the data set listed under Homo sapiens [9], 283; in the data set filed under Homo sapiens [10], 1700; in the data set listed under Homo sapiens [11], 125.

In general, IC50 refers to the concentration needed to halve the response being measured. The term clearance denotes a measure of how efficiently the substance is removed, as volume per time. The AUC is the area under the concentration-time curve, a measure of exposure. Broadly, the half-life is the time needed for the level to fall by half in the phase considered. High values mean slow decline, low ones rapid decline. Usually Cmax stands for the peak of the concentration-time curve. One may read the Tmax as the time at which the peak concentration occurs. For orientation: bioavailability means dose-corrected exposure relative to a reference, in per cent.
